# Test results from US12178800B2, “Sulforaphane-melatonin-like compound” (priority 2018, dated 2024).
# Assays:
# mouse tongues = test: TUNEL staining of tongue sections (apoptosis); assay type: in vivo, ICR mice; details: 12 days post-irradiation, control 23.7%
# Source text: The scoring of oral mucositis was based on a modification of the method of Sonis et al. To assess the severity of oral mucositis, mice were anesthetized with isoflurane every day. The oral mucositis score was: 0=normal; 1=partial hyperemia, erythema and swelling; 2=overall hyperemia, erythema and swelling; 3=epidermolysis, hyperemia and erythema; 4=extensive epidermolysis and bleeding; 5=bleeding and abscesses. Myeloperoxidase (MPO) activity is a marker for neutrophils in inflamed tissue. MPO activity was measured in mouse tongues using a modification of the method of Chen et al. After mice had been killed by cervical dislocation 12 days after irradiation, tongue samples (n=10 per group) were removed and stored at −70° C. until required for assay. […] MPO activity was measured using a Microplate Reader (NJ-2300; Biotec, Tokyo, Japan) at 450 nm. MPO activity was calculated by measuring the slope of absorbance calibrated using MPO standards (Wako Biochemicals) and expressed as MPO/g tongue. […] TBARS levels were measured using the Microplate Reader (Biotec) at 540 nm. TBARS levels were calculated by measuring the slope of absorbance calibrated using TBARS standards and expressed as TBARS/g tongue. […] The number of TUNEL-positive cells on the tongue tips were counted and expressed as a percentage. […] Data were analyzed using one-way analysis of variance (ANOVA) followed by the Steel-Dwass test. […]
# nuclear factor (NF)-κB = test: NF-κB immunohistochemistry of irradiated skin; assay type: in vivo, Gottingen mini-pigs
# Procedure: After incubation in normal horse serum for 60 min to prevent nonspecific binding, the skin sections were incubated with mouse anti-nuclear factor (NF)-κB (sc-109, 1:200; Santa Cruz Biotechnology, Santa Cruz, CA, USA) and mouse anti-COX-2 (18-7379, 1:200; Zymed, USA) in phosphate buffered saline-Tween (PBS-T overnight at 4° C. The sections were subsequently incubated with biotinylated horse anti-mouse IgG (VECTASTAIN Elite ABC Kit; Vector Laboratories, USA). The immunoreactivity was assessed using the avidin-biotin peroxidase complex (VECTASTAIN Elite ABC Kit; Vector Laboratories). The peroxidase reaction was developed using a diaminobenzidine substrate kit (DAB Substrate Kit SK-4100; Vector Laboratories). As a control, the primary antibodies were omitted from the immunohistochemical analysis of a few test sections in each experiment. The sections were then counterstained with hematoxylin before being mounted.
smiles,measurement,setting,value
COc1cc2c(CCCCN=C=S)c[nH]c2cc1O [6OHM-6-HITC],percentage of TUNEL-positive cells,mouse tongues; 30 mg/kg i.p.,9.9%
same,percentage of TUNEL-positive cells,mouse tongues; 300 mg/kg i.p.,8.6%
same,NF-κB expression in irradiated skin vs. vehicle-treated irradiated skin,"nuclear factor (NF)-κB; 7, 21 and 35 days after irradiation",lower
same,nuclear NF-κB expression,"nuclear factor (NF)-κB; irradiated skin, treated",rapidly decreased
